From US9290478B2, “Substituted quinoxalines as FGFR kinase inhibitors” (ASTEX THERAPEUTICS LTD, priority 2010, dated 2016)

Assays:
Ba/F3-TEL-FGFR3 cells = target: T1, Ba/F3-TEL-FGFR3 cells (Homo sapiens, UniProt P22607); test: Ba/F3-TEL-FGFR3 cell proliferation assay; assay type: cell-based; settings: 72 hours
T1 construct: fused on or other part: P41212 (Transcription factor ETV6)
Protocol: (§1) Ba/F3-TEL-FGFR3 & Ba/F3 (WT) Cell Proliferation Assays
(§2) Stably transfected Ba/F3-TEL-FGFR3 cells were plated out into black 96-well tissue culture plates with clear bottoms in RPMI medium containing 10% FBS and 0.25 mg/ml G418 at a density of 5×10^3 cells/well (200 μl per well). The parental wild-type Ba/F3 cells (DSMZ no.: ACC 300) were plated out into black 96-well tissue culture plates with clear bottoms in RPMI medium containing 10% FBS and 2 ng/ml mouse IL-3 (R&D Sysems) at a density of 2.5×10^3 cells/well (200 μl per well). Plates were placed in an incubator overnight before adding the compounds the following day. Dilutions of compounds were made in DMSO starting at 10 mM and were diluted into the wells to give a final DMSO concentration of 0.1% in assay. Compounds were left on the cells for 72 hours before the plates were removed from the incubator and 20 μl of Alamar Blue™ (Biosource) was added to each well. Plates were placed in the incubator for 4-6 hours before reading plates at 535 nm (excitation)/590 nm (emission) on a Fusion plate reader (Packard). Where inhibition is high an IC50 can be determined.

[1] = test system: parental wild-type Ba/F3 cells; test: Ba/F3 (WT) cell proliferation assay; assay type: cell-based; settings: BaF3; 72 hours, 2 ng/ml mouse IL-3; read-out: BAF3_WT pIC50 (converted)
Protocol: as §1, §2

T1 sequence (P22607 whole entry, change not shown, the tested form may be a part): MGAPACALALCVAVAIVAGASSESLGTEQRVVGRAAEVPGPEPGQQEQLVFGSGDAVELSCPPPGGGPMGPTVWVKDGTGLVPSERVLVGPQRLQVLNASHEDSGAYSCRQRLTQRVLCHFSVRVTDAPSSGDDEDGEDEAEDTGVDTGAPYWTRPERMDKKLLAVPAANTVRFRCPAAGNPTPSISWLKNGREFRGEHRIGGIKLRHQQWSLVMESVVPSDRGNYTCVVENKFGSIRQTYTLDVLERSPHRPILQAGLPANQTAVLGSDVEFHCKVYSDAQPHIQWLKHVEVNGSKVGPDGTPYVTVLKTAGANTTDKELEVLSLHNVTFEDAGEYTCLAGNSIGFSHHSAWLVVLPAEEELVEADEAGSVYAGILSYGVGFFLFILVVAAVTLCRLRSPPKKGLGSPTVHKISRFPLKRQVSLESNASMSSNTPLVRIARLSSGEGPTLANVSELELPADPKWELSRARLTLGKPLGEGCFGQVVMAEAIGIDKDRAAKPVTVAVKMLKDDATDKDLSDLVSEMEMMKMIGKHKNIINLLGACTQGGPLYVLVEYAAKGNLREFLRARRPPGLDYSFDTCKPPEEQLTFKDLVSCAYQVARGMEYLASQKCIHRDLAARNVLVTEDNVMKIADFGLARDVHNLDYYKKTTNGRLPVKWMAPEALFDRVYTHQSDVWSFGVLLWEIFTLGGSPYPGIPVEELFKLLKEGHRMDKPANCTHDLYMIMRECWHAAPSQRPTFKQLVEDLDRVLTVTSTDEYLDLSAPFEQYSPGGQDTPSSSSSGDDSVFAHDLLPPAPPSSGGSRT

Row | SMILES | BAF3_TEL_FGFR3 pIC50 (Ba/F3-TEL-FGFR3 cells) | IC50 [1] [µM]
1 | COc1cc(OC)cc(C(CCO)c2ccc3ncc(-c4cnn(C)c4)nc3c2)c1 (stereo not drawn) [Compound 22] | 6.85 | –
2 | COc1cc(OC)cc(C(CCNC(C)C)c2ccc3ncc(-c4cnn(C)c4)nc3c2)c1.Cl (stereo not drawn) [Compound 29, {3-(3,5-Dimethoxy-phenyl)-3-[3-(1-methyl-1H-pyrazol-4-yl)-quinoxalin-6-yl]-propyl}-isopropyl-amine] | 7.7 | 5.01
